Test results from PMC9299836 (eLife, 2022).

Molecular target: mGluR2 (Mus musculus, UniProt Q14BI2, A548F)
Assay: smFRET of azi-CRD: cross-correlation of donor and acceptor intensities (CRD dynamics) and HMM transition density plots;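 further: single detergent-solubilized receptors captured on antibody-coated flow cells via C-terminal FLAG-tag, imaged by smFRET, donor and acceptor intensity traces from three independent biological replicates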

mGluR2, sequence (Q14BI2 19-872 A548F): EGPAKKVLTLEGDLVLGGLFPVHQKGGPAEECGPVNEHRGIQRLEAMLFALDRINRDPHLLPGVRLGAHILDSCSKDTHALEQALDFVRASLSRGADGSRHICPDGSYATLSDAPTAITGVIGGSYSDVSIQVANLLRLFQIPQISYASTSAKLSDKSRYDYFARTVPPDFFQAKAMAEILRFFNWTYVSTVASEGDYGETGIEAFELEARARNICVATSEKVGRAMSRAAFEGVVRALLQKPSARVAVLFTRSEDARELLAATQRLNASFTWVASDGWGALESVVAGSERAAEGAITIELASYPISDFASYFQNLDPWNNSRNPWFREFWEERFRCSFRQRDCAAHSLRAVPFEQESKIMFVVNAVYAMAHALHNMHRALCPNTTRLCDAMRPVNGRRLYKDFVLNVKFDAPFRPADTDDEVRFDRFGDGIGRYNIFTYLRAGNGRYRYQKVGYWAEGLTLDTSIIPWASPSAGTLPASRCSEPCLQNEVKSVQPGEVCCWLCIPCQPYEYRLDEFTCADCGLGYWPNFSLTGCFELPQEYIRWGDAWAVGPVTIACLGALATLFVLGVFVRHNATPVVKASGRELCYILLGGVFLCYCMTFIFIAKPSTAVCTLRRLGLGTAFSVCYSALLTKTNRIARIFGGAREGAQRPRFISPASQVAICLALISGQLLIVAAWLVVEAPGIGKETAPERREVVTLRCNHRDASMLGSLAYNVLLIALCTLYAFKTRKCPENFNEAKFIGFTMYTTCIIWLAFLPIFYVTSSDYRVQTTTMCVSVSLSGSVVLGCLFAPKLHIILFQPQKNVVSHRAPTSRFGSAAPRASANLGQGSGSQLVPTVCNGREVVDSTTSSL

Cross Correlation, Mean (0μM Glutamate + GPT/Pyruvate + 10μM BINA, Time 2.3 s, N 3): -0.01949
Cross Correlation, Mean (0μM Glutamate + GPT/Pyruvate + 10μM BINA, Time 2.35 s, N 3): -0.01229
Cross Correlation, Mean (0μM Glutamate + GPT/Pyruvate + 10μM BINA, Time 2.4 s, N 3): -0.01405
Cross Correlation, Mean (0μM Glutamate + GPT/Pyruvate + 10μM BINA, Time 2.45 s, N 3): -0.01492
Cross Correlation, Mean (0μM Glutamate + GPT/Pyruvate + 10μM BINA, Time 2.5 s, N 3): -0.01729
Cross Correlation, Mean (0μM Glutamate + GPT/Pyruvate + 10μM BINA, Time 2.55 s, N 3): -0.01573
Cross Correlation, Mean (0μM Glutamate + GPT/Pyruvate + 10μM BINA, Time 2.6 s, N 3): -0.01304
Cross Correlation, Mean (0μM Glutamate + GPT/Pyruvate + 10μM BINA, Time 2.65 s, N 3): -0.01522
Cross Correlation, Mean (0μM Glutamate + GPT/Pyruvate + 10μM BINA, Time 2.7 s, N 3): -0.01589
Cross Correlation, Mean (0μM Glutamate + GPT/Pyruvate + 10μM BINA, Time 2.75 s, N 3): -0.00863
Cross Correlation, Mean (0μM Glutamate + GPT/Pyruvate + 10μM BINA, Time 2.8 s, N 3): -0.00835
Cross Correlation, Mean (0μM Glutamate + GPT/Pyruvate + 10μM BINA, Time 2.85 s, N 3): -0.01318
Cross Correlation, Mean (0μM Glutamate + GPT/Pyruvate + 10μM BINA, Time 2.9 s, N 3): -0.01103
Cross Correlation, Mean (0μM Glutamate + GPT/Pyruvate + 10μM BINA, Time 2.95 s, N 3): -0.01389
Cross Correlation, Mean (Time 0.2 s, 1000μM Glutamate + 10μM BINA, N=3): -0.07372
Cross Correlation, Mean (Time 0.25 s, 1000μM Glutamate + 10μM BINA, N=3): -0.0658
Cross Correlation, Mean (Time 0.3 s, 1000μM Glutamate + 10μM BINA, N=3): -0.06773
Cross Correlation, Mean (Time 0.35 s, 1000μM Glutamate + 10μM BINA, N=3): -0.06255
Cross Correlation, Mean (Time 0.4 s, 1000μM Glutamate + 10μM BINA, N=3): -0.05489
Cross Correlation, Mean (Time 0.45 s, 1000μM Glutamate + 10μM BINA, N=3): -0.05062
Cross Correlation, Mean (Time 0.5 s, 1000μM Glutamate + 10μM BINA, N=3): -0.04608
Cross Correlation, Mean (Time 0.55 s, 1000μM Glutamate + 10μM BINA, N=3): -0.05414
Cross Correlation, Mean (Time 0.6 s, 1000μM Glutamate + 10μM BINA, N=3): -0.0452
Cross Correlation, Mean (Time 0.65 s, 1000μM Glutamate + 10μM BINA, N=3): -0.04488
Cross Correlation, Mean (Time 0.7 s, 1000μM Glutamate + 10μM BINA, N=3): -0.04657
Cross Correlation, Mean (Time 0.75 s, 1000μM Glutamate + 10μM BINA, N=3): -0.03909
Cross Correlation, Mean (Time 0.8 s, 1000μM Glutamate + 10μM BINA, N=3): -0.03858
Cross Correlation, Mean (Time 0.85 s, 1000μM Glutamate + 10μM BINA, N=3): -0.03795
Cross Correlation, Mean (Time 0.9 s, 1000μM Glutamate + 10μM BINA, N=3): -0.04083
Cross Correlation, Mean (Time 0.95 s, 1000μM Glutamate + 10μM BINA, N=3): -0.04226
Cross Correlation, Mean (Time 1 s, 1000μM Glutamate + 10μM BINA, N=3): -0.03681
Cross Correlation, Mean (Time 1.05 s, 1000μM Glutamate + 10μM BINA, N=3): -0.03546
Cross Correlation, Mean (Time 1.1 s, 1000μM Glutamate + 10μM BINA, N=3): -0.03003
Cross Correlation, Mean (Time 1.15 s, 1000μM Glutamate + 10μM BINA, N=3): -0.02551
Cross Correlation, Mean (Time 1.2 s, 1000μM Glutamate + 10μM BINA, N=3): -0.0316
Cross Correlation, Mean (Time 1.25 s, 1000μM Glutamate + 10μM BINA, N=3): -0.02716
Cross Correlation, Mean (Time 1.3 s, 1000μM Glutamate + 10μM BINA, N=3): -0.03167
Cross Correlation, Mean (Time 1.35 s, 1000μM Glutamate + 10μM BINA, N=3): -0.03105
Cross Correlation, Mean (Time 1.4 s, 1000μM Glutamate + 10μM BINA, N=3): -0.03283
Cross Correlation, Mean (Time 1.45 s, 1000μM Glutamate + 10μM BINA, N=3): -0.03008
Cross Correlation, Mean (Time 1.5 s, 1000μM Glutamate + 10μM BINA, N=3): -0.02156
Cross Correlation, Mean (Time 1.55 s, 1000μM Glutamate + 10μM BINA, N=3): -0.02279
Cross Correlation, Mean (Time 1.6 s, 1000μM Glutamate + 10μM BINA, N=3): -0.0244
Cross Correlation, Mean (Time 1.65 s, 1000μM Glutamate + 10μM BINA, N=3): -0.02489
Cross Correlation, Mean (Time 1.7 s, 1000μM Glutamate + 10μM BINA, N=3): -0.02216
Cross Correlation, Mean (Time 1.75 s, 1000μM Glutamate + 10μM BINA, N=3): -0.02536
Cross Correlation, Mean (Time 1.8 s, 1000μM Glutamate + 10μM BINA, N=3): -0.02663
Cross Correlation, Mean (Time 1.85 s, 1000μM Glutamate + 10μM BINA, N=3): -0.0191
Cross Correlation, Mean (Time 1.9 s, 1000μM Glutamate + 10μM BINA, N=3): -0.02267
Cross Correlation, Mean (Time 1.95 s, 1000μM Glutamate + 10μM BINA, N=3): -0.02058
Cross Correlation, Mean (Time 2 s, 1000μM Glutamate + 10μM BINA, N=3): -0.01998
Cross Correlation, Mean (Time 2.05 s, 1000μM Glutamate + 10μM BINA, N=3): -0.02099
Cross Correlation, Mean (Time 2.1 s, 1000μM Glutamate + 10μM BINA, N=3): -0.01699
Cross Correlation, Mean (Time 2.15 s, 1000μM Glutamate + 10μM BINA, N=3): -0.01762
CRD dynamics by cross-correlation of donor and acceptor intensities (azi-CRD, 10 μM modulator, absence of glutamate): increased receptor dynamics
Compound: Cc1c(OCc2cccc(-c3ccc(C(=O)O)cc3)c2)cc2c(c1C)C(=O)C(C1CCCC1)C2 (stereo not shown) [BINA]
